The subject of one experiment is A375 cells. Briefly: Inhibition of cancer cell growth, MTT assay, A375. Type of experiment: cell-based. To be noted: Homo sapiens, A-375, 72 h exposure. Put shortly: (§1)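 Cells grown in RPMI 1640 with 10% FBS were seeded at about 4000 cells/well, left 24 h, then exposed to compound for 72 h (1% DMSO final). MTT absorbance at 570 nm was compared with viable cells at time of addition to give growth inhibition; IC50 from concentration–inhibition plots, triplicates.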
Background: Tetrazolium assays rely on reduction of a dye to a coloured formazan, in cell work by metabolically active cells.

A further experiment concerns the target KDR (VEGFR2) (Homo sapiens (Human), UniProt P35968). Briefly: Z′-LYTE kinase inhibition assay (Invitrogen), KDR. To be noted: Z′-LYTE method; for inhibition at 1 µM: 1 μM compound, read-out: % inhibition at 1 μM against KDR; for IC50: read-out: IC50 against KDR. Type of experiment: biochemical. Put shortly:
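Z′-LYTE FRET assay: 10 μL reactions with 0.5–11.7 ng KDR and 2 μM Tyr 01 peptide in 50 mM HEPES pH 7.5, 10 mM MgCl2, 1 mM EGTA, 0.01% BRIJ-35, 1 h at room temperature. Development Reagent B (1:256) added for 60 min, fluorescence read; IC50 from concentration–inhibition curves.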

Another experiment concerns A549 cells. The experiment can be described thus: Inhibition of cancer cell growth, MTT assay, A549. Format: cell-based. To be noted: Homo sapiens, A549, 72 h exposure. The method in brief:
as §1

The target in a further experiment is BRAF (Homo sapiens (Human), UniProt P15056). The experiment can be described thus: Z′-LYTE kinase inhibition assay (Invitrogen), BRAF. Format: biochemical. The settings on record: 1 μM compound, Z′-LYTE method; read-out: % inhibition at 1 μM against BRAF.
The next experiment addresses BRAF V600E (Homo sapiens (Human), UniProt P15056, V600E). Briefly: Z′-LYTE kinase inhibition assay (Invitrogen), BRAF V600E. Format: biochemical. The settings on record: Z′-LYTE method; for inhibition at 1 µM: 1 μM compound, read-out: % inhibition at 1 μM against BRAF V600E; for IC50: read-out: IC50 against BRAF V600E. The method in brief:
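FRET-based Z′-LYTE peptide phosphorylation format in 50 mM HEPES pH 7.5, 0.01% BRIJ-35, 10 mM MgCl2, 1 mM EGTA with ATP. Kinase reaction 60 min at room temperature, then protease development step 60 min at room temperature before fluorescence read. IC50 from compound concentration versus percent inhibition.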

This is an account of results in patent US10759766B2, “Certain chemical entities, compositions, and methods” (NeuPharma, Inc., priority 2011, dated 2020).

Where only a bound is given, the exact number is not on record here.

Sequence of BRAF (P15056 whole entry): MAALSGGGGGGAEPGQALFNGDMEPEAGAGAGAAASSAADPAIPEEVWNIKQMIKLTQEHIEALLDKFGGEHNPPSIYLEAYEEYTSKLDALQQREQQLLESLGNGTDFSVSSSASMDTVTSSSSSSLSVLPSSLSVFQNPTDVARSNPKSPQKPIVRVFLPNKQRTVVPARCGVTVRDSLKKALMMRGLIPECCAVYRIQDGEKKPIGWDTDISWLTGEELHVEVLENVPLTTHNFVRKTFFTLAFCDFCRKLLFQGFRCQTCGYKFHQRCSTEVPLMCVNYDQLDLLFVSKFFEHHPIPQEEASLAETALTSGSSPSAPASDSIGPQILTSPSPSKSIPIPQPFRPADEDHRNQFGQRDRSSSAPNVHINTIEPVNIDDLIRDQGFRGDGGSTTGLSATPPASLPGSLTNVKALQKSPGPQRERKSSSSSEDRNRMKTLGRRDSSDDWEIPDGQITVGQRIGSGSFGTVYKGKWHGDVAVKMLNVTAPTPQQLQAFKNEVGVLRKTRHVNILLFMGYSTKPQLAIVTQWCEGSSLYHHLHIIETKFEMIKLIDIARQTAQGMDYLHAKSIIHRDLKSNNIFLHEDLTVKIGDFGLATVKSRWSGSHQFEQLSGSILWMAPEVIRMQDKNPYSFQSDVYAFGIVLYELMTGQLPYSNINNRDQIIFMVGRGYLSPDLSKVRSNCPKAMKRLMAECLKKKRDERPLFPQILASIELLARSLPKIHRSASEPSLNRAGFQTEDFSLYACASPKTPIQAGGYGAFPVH
Sequence of BRAF V600E (P15056 whole entry V600E): as the sequence (P15056 whole entry) above, with V600E counted along it
Sequence of KDR (VEGFR2) (P35968 20-1356): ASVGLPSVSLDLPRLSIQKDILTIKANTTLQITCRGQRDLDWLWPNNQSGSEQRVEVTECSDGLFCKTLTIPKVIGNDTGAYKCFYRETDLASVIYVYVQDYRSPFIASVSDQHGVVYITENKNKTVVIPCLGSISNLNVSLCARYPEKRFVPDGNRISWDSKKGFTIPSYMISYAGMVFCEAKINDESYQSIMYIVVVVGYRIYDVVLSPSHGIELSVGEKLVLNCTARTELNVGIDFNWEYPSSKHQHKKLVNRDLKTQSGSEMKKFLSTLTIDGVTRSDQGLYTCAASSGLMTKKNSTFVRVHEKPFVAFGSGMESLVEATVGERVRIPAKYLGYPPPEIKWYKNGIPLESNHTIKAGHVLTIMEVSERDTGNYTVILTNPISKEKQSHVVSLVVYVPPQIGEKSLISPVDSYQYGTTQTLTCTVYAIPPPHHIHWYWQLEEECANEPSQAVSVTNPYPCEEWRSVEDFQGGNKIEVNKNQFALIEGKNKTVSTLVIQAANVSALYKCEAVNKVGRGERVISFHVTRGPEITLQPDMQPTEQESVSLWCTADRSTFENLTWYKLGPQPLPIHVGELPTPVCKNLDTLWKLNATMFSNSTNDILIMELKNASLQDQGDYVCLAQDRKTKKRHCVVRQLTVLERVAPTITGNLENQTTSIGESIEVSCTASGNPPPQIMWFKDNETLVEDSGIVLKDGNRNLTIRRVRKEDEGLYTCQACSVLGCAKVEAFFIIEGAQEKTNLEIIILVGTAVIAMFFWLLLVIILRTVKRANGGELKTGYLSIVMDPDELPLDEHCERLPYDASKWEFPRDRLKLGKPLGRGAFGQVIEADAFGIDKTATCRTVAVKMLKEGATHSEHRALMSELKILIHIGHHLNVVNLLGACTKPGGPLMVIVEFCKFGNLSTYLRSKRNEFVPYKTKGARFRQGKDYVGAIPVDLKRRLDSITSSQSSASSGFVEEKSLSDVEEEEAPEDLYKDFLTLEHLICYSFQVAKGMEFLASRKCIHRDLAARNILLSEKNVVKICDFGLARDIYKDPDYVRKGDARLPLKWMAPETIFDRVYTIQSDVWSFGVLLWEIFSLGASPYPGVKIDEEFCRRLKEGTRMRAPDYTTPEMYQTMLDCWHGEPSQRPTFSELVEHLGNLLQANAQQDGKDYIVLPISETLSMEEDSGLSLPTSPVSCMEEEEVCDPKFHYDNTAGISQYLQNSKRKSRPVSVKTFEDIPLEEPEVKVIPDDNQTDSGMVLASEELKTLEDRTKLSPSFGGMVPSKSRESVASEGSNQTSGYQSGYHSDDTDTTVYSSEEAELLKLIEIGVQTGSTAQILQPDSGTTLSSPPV

Regarding `O=C(Nc1cc(F)c(F)c(C(=O)c2ccc3nccnc3c2)c1F)c1cccc(F)c1` [Compound C108, 3-fluoro-N-(2,4,5-trifluoro-3-(quinoxaline-6-carbonyl)phenyl)benzamide], the IC50 (commonly the concentration that inhibits the measured activity by half) in the experiment with A375 cells was more than 5000 nM; in the experiment with A549 cells it was 2000 to 5000 nM. Moreover, the inhibition – broadly, the drop in the measured response relative to a control, in per cent – at 1 µM is less than 70% on KDR (VEGFR2), less than 70% on BRAF and 70 to 89% at BRAF V600E.

Turning to `O=C(Nc1cc(F)c(F)c(C(=O)c2ccc3nccnc3c2)c1F)c1cccc(C(F)(F)F)c1` [Compound C109, N-(2,4,5-trifluoro-3-(quinoxaline-6-carbonyl)phenyl)-3-(trifluoromethyl)benzamide], the IC50 in the experiment on A375 cells was more than 5000 nM; on KDR (VEGFR2), more than 100 nM; in the experiment with A549 cells, 2000 to 5000 nM; at BRAF V600E, more than 100 nM. Moreover, the inhibition at 1 µM at KDR (VEGFR2) was 70 to 89%; at BRAF, less than 70%; at BRAF V600E, 70 to 89%.

In the case of `O=C(Nc1cccc(C(=O)c2ccc3nccnc3c2)c1)c1cccc(C(F)(F)F)c1` [Compound C110, N-(3-(quinoxaline-6-carbonyl)phenyl)-3-(trifluoromethyl)benzamide], the figures for the IC50 in the experiment on A375 cells and in the experiment with A549 cells were more than 5000 nM and 2000 to 5000 nM, respectively. The inhibition at 1 µM at KDR (VEGFR2) was less than 70%; at BRAF it was 70 to 89%; at BRAF V600E, 70 to 89%.

Take `O=C(Nc1cccc(C(=O)c2ccc3nccnc3c2)c1)c1ccc(Cl)c(C(F)(F)F)c1` [Compound C111, 4-chloro-N-(3-(quinoxaline-6-carbonyl)phenyl)-3-(trifluoromethyl)benzamide]: the IC50 with A375 cells is more than 5000 nM; in the experiment with A549 cells, less than 2000 nM. Also, the inhibition at 1 µM is less than 70% on KDR (VEGFR2), less than 70% on BRAF and 70 to 89% at BRAF V600E.

As to `O=C(Nc1ccc(F)c(C(=O)c2ccc3nccnc3c2)c1Cl)c1ccc(Cl)c(C(F)(F)F)c1` [Compound C112, 4-chloro-N-(2-chloro-4-fluoro-3-(quinoxaline-6-carbonyl)phenyl)-3-(trifluoromethyl)benzamide], the IC50 in the experiment on A375 cells and with A549 cells was more than 5000 nM throughout. For the same molecule, the inhibition at 1 µM at KDR (VEGFR2), at BRAF and on BRAF V600E was less than 70% in each case.

Turning to `O=C(Nc1ccc(F)c(C(=O)c2ccc3nccnc3c2)c1)c1cccc(C(F)(F)F)c1` [Compound C116, N-(4-fluoro-3-(quinoxaline-6-carbonyl)phenyl)-3-(trifluoromethyl)benzamide], the IC50 in the experiment with A375 cells was less than 1000 nM; in the experiment on A549 cells it was 2000 to 5000 nM. Also, the inhibition at 1 µM was more than 89% at KDR (VEGFR2), 70 to 89% at BRAF and more than 89% on BRAF V600E.

With `O=C(Nc1cccc(C(=O)c2ccc3ncc(N4CCOCC4)nc3c2)c1)c1cccc(C(F)(F)F)c1` [Compound C119, N-(3-(3-morpholinoquinoxaline-6-carbonyl)phenyl)-3-(trifluoromethyl)benzamide], the IC50 with A375 cells was less than 1000 nM; at KDR (VEGFR2), less than 100 nM; in the experiment with A549 cells it was 2000 to 5000 nM; on BRAF V600E, less than 100 nM. Also, the inhibition at 1 µM at KDR (VEGFR2) was more than 89%; at BRAF, 70 to 89%; on BRAF V600E it was more than 89%.

For the molecule `O=C(Nc1cccc(C(=O)c2ccc3ncc(N4CCCC4)nc3c2)c1)c1cccc(F)c1` [Compound C121, 3-fluoro-N-(3-(3-(pyrrolidin-1-yl)quinoxaline-6-carbonyl)phenyl)benzamide], the IC50 in the experiment on A375 cells was less than 1000 nM; on KDR (VEGFR2), less than 100 nM; in the experiment on A549 cells it was less than 2000 nM; at BRAF V600E, more than 100 nM. Further, the inhibition at 1 µM on KDR (VEGFR2) was 70 to 89%; at BRAF, less than 70%; on BRAF V600E it was 70 to 89%.

Regarding `O=C(Nc1cccc(C(=O)c2ccc3ncc(N4CCCC4)nc3c2)c1)c1cccc(C(F)(F)F)c1` [Compound C122, N-(3-(3-(pyrrolidin-1-yl)quinoxaline-6-carbonyl)phenyl)-3-(trifluoromethyl)benzamide], the IC50 is 1000 to 5000 nM in the experiment with A375 cells, less than 100 nM on KDR (VEGFR2), 2000 to 5000 nM in the experiment on A549 cells and less than 100 nM at BRAF V600E. Moreover, the inhibition at 1 µM on KDR (VEGFR2) was more than 89%; on BRAF, 70 to 89%; at BRAF V600E it was more than 89%.

Consider `O=C(Nc1cccc(C(=O)c2ccc3ncc(-c4cccnc4)nc3c2)c1)c1ccc(C(F)(F)F)c(Cl)c1` [Compound C124, 3-chloro-N-(3-(3-(pyridin-3-yl)quinoxaline-6-carbonyl)phenyl)-4-(trifluoromethyl)benzamide], for which the IC50 in the experiment with A375 cells is more than 5000 nM; at KDR (VEGFR2), less than 100 nM; with A549 cells, more than 5000 nM; on BRAF V600E, less than 100 nM. Besides, the inhibition at 1 µM on KDR (VEGFR2) was more than 89%; on BRAF, less than 70%; on BRAF V600E it was more than 89%.

`O=C(Nc1cccc(C(=O)c2ccc3ncc(-n4ccnc4)nc3c2)c1)c1ccc(Cl)c(C(F)(F)F)c1` [Compound C132, N-(3-(3-(1H-imidazol-1-yl)quinoxaline-6-carbonyl)phenyl)-4-chloro-3-(trifluoromethyl)benzamide]: the values for the half-inhibitory concentration (IC50) in the experiment on A375 cells and in the experiment on A549 cells were less than 1000 nM and more than 5000 nM, respectively. Further, the inhibition at 1 µM on KDR (VEGFR2) is 70 to 89%; on BRAF, less than 70%; at BRAF V600E, more than 89%.

In the case of `O=C(Nc1cccc(C(=O)c2ccc3ncc(-c4cn[nH]c4)nc3c2)c1)c1ccc(Cl)c(C(F)(F)F)c1` [Compound C133, N-(3-(3-(1H-pyrazol-4-yl)quinoxaline-6-carbonyl)phenyl)-4-chloro-3-(trifluoromethyl)benzamide], the IC50 in the experiment on A375 cells is less than 1000 nM; in the experiment on A549 cells, 2000 to 5000 nM. Besides, the figures for the inhibition at 1 µM on KDR (VEGFR2), at BRAF and at BRAF V600E were more than 89%, less than 70% and 70 to 89%, respectively.

As for `O=C(Nc1ccc(F)c(C(=O)c2ccc3ncc(N4CCOCC4)nc3c2)c1)c1ccc(Cl)c(C(F)(F)F)c1` [Compound C134, 4-chloro-N-(4-fluoro-3-(3-morpholinoquinoxaline-6-carbonyl)phenyl)-3-(trifluoromethyl)benzamide], the IC50 in the experiment on A375 cells is less than 1000 nM; on KDR (VEGFR2), less than 100 nM; in the experiment with A549 cells, 2000 to 5000 nM; at BRAF V600E, more than 100 nM. Also, the values for the inhibition at 1 µM on KDR (VEGFR2), at BRAF and on BRAF V600E were more than 89%, less than 70% and 70 to 89%, respectively.

For the molecule `O=C(Nc1ccc(F)c(C(=O)c2ccc3ncc(N4CCOCC4)nc3c2)c1)c1cccc(C(F)(F)F)c1` [Compound C141, N-(4-fluoro-3-(3-morpholinoquinoxaline-6-carbonyl)phenyl)-3-(trifluoromethyl)benzamide], the IC50 in the experiment on A375 cells was less than 1000 nM; on KDR (VEGFR2) it was less than 100 nM; in the experiment on A549 cells, less than 2000 nM; at BRAF V600E it was less than 100 nM. Also, the figures for the inhibition at 1 µM on KDR (VEGFR2), at BRAF and on BRAF V600E were more than 89%, less than 70% and more than 89%, respectively.

Turning to `O=C(Nc1cc(F)cc(C(=O)c2ccc3ncc(N4CCOCC4)nc3c2)c1)c1cccc(C(F)(F)F)c1` [Compound C143, N-(3-fluoro-5-(3-morpholinoquinoxaline-6-carbonyl)phenyl)-3-(trifluoromethyl)benzamide], the IC50 in the experiment with A375 cells is less than 1000 nM; on KDR (VEGFR2), less than 100 nM; in the experiment with A549 cells, 2000 to 5000 nM; at BRAF V600E it was less than 100 nM. The results for the inhibition at 1 µM at KDR (VEGFR2), on BRAF and at BRAF V600E were 70 to 89%, less than 70% and more than 89%, respectively.

`O=C(Nc1cc(F)c(F)c(C(=O)c2ccc3ncc(N4CCOCC4)nc3c2)c1)c1cccc(F)c1` [Compound C144, N-(3,4-difluoro-5-(3-morpholinoquinoxaline-6-carbonyl)phenyl)-3-fluorobenzamide]: the IC50 lay in the range of 1000 to 5000 nM in the experiment on A375 cells and 2000 to 5000 nM in the experiment on A549 cells. Also, the inhibition at 1 µM at KDR (VEGFR2) is 70 to 89%; at BRAF, 70 to 89%; on BRAF V600E it was more than 89%.

`O=C(Nc1cc(F)c(F)c(C(=O)c2ccc3ncc(N4CCOCC4)nc3c2)c1)c1cccc(C(F)(F)F)c1` [Compound C145, N-(3,4-difluoro-5-(3-morpholinoquinoxaline-6-carbonyl)phenyl)-3-(trifluoromethyl)benzamide]: the IC50 was less than 1000 nM with A375 cells, less than 100 nM on KDR (VEGFR2), more than 5000 nM in the experiment with A549 cells and less than 100 nM at BRAF V600E. Moreover, the inhibition at 1 µM was more than 89% at KDR (VEGFR2), less than 70% at BRAF and more than 89% at BRAF V600E.
